Measured values reported in US12503452B2 (Curza Global, LLC, priority 2019, dated 2025).
Read-outs that look alike come from different tables or passages of the source.

Tests used:
[1] = system: E. coli S30 extract (bacterial protein synthesis); assay: E. coli S30 extract coupled transcription-translation luciferase assay (inhibition of bacterial protein synthesis); type: biochemical; conditions: class by IC50 or % inhibition @ 1 μM, read-out: S30 IC50 (μM/% inhib.)
How it was run: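 Cell-free coupled transcription-translation in E. coli S30 circular-DNA extract, with pBESTluc plasmid as template and complete amino acid mix. Eight 2-fold compound dilutions were incubated with the extract 1 h at 37 °C, chilled, then luciferase luminescence was read. % inhibition was taken relative to no-inhibitor wells; no-DNA wells gave background.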

E. faecalis (Ef) = assay: Broth microdilution minimum inhibitory concentration (MIC); type: cell-based; conditions: Enterococcus faecalis, E. faecalis, read-out: Ef + bicarb MIC
How it was run: (§1)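 Following CLSI M07-A9 with minor changes, growth medium was cation-adjusted Mueller-Hinton broth, alone or supplemented with bicarbonate (6.25 or 25 mM) or heat-inactivated human serum up to 50%. Each compound was tested over eight two-fold dilutions against 5×10^4 CFU per well.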

S. aureus (Sa) = assay: as above; type: cell-based; conditions: Staphylococcus aureus, S. aureus, read-out: Sa + bicarb MIC
How it was run: as §1

E. coli (Ec) = assay: as above; type: cell-based; conditions: Escherichia coli, E. coli, read-out: E. coli + bicarb MIC
How it was run: as §1

A. baumannii (Ab) = assay: as above; type: cell-based; conditions: Acinetobacter baumannii, A. baumannii, read-out: Ab + bicarb MIC
How it was run: as §1

P. aeruginosa (Pa) = assay: as above; type: cell-based; conditions: Pseudomonas aeruginosa, P. aeruginosa, read-out: Pa MIC + bicarb
How it was run: as §1

[2] = biological target: Rabbit Reticulocyte Lysate (eukaryotic protein synthesis); assay: Rabbit reticulocyte lysate luciferase assay (inhibition of eukaryotic protein synthesis); type: biochemical; conditions: class by IC50 or % inhibition @ 1 μM, read-out: Rabbit reticulocyte IC50 (μM/% inhib.)
How it was run: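 Nuclease-treated rabbit reticulocyte lysate translating luciferase control RNA, with complete amino acids, was incubated at 30° C. for 90 minutes with 2-fold serial compound dilutions. Luminescence was measured after adding luciferase reagent. % inhibition was relative to water controls, with no-RNA wells as background.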

[3] = growth medium supplemented with sodium bicarbonate
[4] = growth medium with sodium bicarbonate

Row | SMILES | IC50 [1] | MIC (E. faecalis (Ef); [3]) | MIC (S. aureus (Sa); [3]) | MIC (E. coli (Ec); [3]) | MIC (A. baumannii (Ab); [3]) | MIC (P. aeruginosa (Pa); [3]) | IC50 [2] | MIC (E. faecalis (Ef); [4]) | MIC (S. aureus (Sa); [4]) | MIC (E. coli (Ec); [4]) | MIC (A. baumannii (Ab); [4]) | MIC (P. aeruginosa (Pa); [4])
1 | CC(Cc1ccc(-n2ccc(NC(=O)N3CCN(C(=O)C(C)(C)N)CC3)nc2=O)cc1)N(C)C1CCC(CN)CC1 (centres unmarked) [Compound 153] | > 1 µM | > 32 µg/mL | < 8 µg/mL | < 8 µg/mL | > 32 µg/mL | > 32 µg/mL | > 1 µM |  |  |  |  | 
2 | CCN(C(C)Cc1ccc(-n2ccc(NC(=O)N3CCN(C(=O)C(C)(C)N)CC3)nc2=O)cc1)C1CCC(CN)CC1 (centres unmarked) [Compound 154] | < 0.5 µM | < 8 µg/mL | < 8 µg/mL | < 8 µg/mL | > 32 µg/mL | > 32 µg/mL | > 1 µM |  |  |  |  | 
3 | CC(Cc1ccc(-n2ccc(NC(=O)N3CCN(C(=O)C(C)(C)N)CC3)nc2=O)cc1)NC[C@H]1C[C@H](N)C1 (some centres unmarked) [Compound 156] | < 0.5 µM | 8 to 32 µg/mL | < 8 µg/mL | < 8 µg/mL | > 32 µg/mL | > 32 µg/mL | > 1 µM |  |  |  |  | 
4 | CC(Cc1ccc(-n2ccc(NC(=O)N3CCN(C(=O)C(C)(C)N)CC3)nc2=O)cc1)N(C)C[C@H]1C[C@H](N)C1 (some centres unmarked) [Compound 157] | < 0.5 µM | < 8 µg/mL | < 8 µg/mL | < 8 µg/mL | > 32 µg/mL | > 32 µg/mL | > 1 µM |  |  |  |  | 
5 | CCN(C[C@H]1C[C@H](N)C1)C(C)Cc1ccc(-n2ccc(NC(=O)N3CCN(C(=O)C(C)(C)N)CC3)nc2=O)cc1 (some centres unmarked) [Compound 158] | < 0.5 µM | < 8 µg/mL | < 8 µg/mL | < 8 µg/mL | > 32 µg/mL | 8 to 32 µg/mL | > 1 µM |  |  |  |  | 
6 | CC(Cc1ccc(-n2ccc(NC(=O)N3CCN(C(=O)C(C)(C)N)CC3)nc2=O)cc1)NC[C@H]1C[C@@H](N)C1 (some centres unmarked) [Compound 159] | < 0.5 µM | 8 to 32 µg/mL | < 8 µg/mL | < 8 µg/mL | > 32 µg/mL | > 32 µg/mL | > 1 µM |  |  |  |  | 
7 | CC(Cc1ccc(-n2ccc(NC(=O)N3CCN(C(=O)C(C)(C)N)CC3)nc2=O)cc1)N(C)C[C@H]1C[C@@H](N)C1 (some centres unmarked) [Compound 160] | < 0.5 µM | < 8 µg/mL | < 8 µg/mL | < 8 µg/mL | > 32 µg/mL | > 32 µg/mL | > 1 µM |  |  |  |  | 
8 | CCN(C[C@H]1C[C@@H](N)C1)C(C)Cc1ccc(-n2ccc(NC(=O)N3CCN(C(=O)C(C)(C)N)CC3)nc2=O)cc1 (some centres unmarked) [Compound 161] | < 0.5 µM | < 8 µg/mL | < 8 µg/mL | < 8 µg/mL | 8 to 32 µg/mL | > 32 µg/mL | > 1 µM |  |  |  |  | 
9 | CC(Cc1ccc(-n2ccc(NC(=O)N3CCN(C(=O)C(C)(C)N)CC3)nc2=O)cc1)N[C@H]1CC[C@H](N)C1 (some centres unmarked) [Compound 162] | < 0.5 µM | 8 to 32 µg/mL | < 8 µg/mL | < 8 µg/mL | > 32 µg/mL | > 32 µg/mL | > 1 µM |  |  |  |  | 
10 | CC(Cc1ccc(-n2ccc(NC(=O)N3CCN(C(=O)C(C)(C)N)CC3)nc2=O)cc1)N(C)[C@H]1CC[C@H](N)C1 (some centres unmarked) [Compound 163] | > 1 µM |  |  |  |  |  | > 1 µM | > 32 µg/mL | 8 to 32 µg/mL | 8 to 32 µg/mL | > 32 µg/mL | > 32 µg/mL
11 | CCN(C(C)Cc1ccc(-n2ccc(NC(=O)N3CCN(C(=O)C(C)(C)N)CC3)nc2=O)cc1)[C@H]1CC[C@H](N)C1 (some centres unmarked) [Compound 164] | < 0.5 µM |  |  |  |  |  | > 1 µM | < 8 µg/mL | < 8 µg/mL | < 8 µg/mL | 8 to 32 µg/mL | > 32 µg/mL
12 | CC(Cc1ccc(-n2ccc(NC(=O)N3CCN(C(=O)C(C)(C)N)CC3)nc2=O)cc1)NCC1CNC1 (centres unmarked) [Compound 165] | > 1 µM |  |  |  |  |  | > 1 µM | > 32 µg/mL | > 32 µg/mL | 8 to 32 µg/mL | > 32 µg/mL | > 32 µg/mL
13 | CC(Cc1ccc(-n2ccc(NC(=O)N3CCN(C(=O)C(C)(C)N)CC3)nc2=O)cc1)N(C)CC1CNC1 (centres unmarked) [Compound 166] | > 1 µM |  |  |  |  |  | > 1 µM | > 32 µg/mL | 8 to 32 µg/mL | 8 to 32 µg/mL | > 32 µg/mL | > 32 µg/mL
14 | CCN(CC1CNC1)C(C)Cc1ccc(-n2ccc(NC(=O)N3CCN(C(=O)C(C)(C)N)CC3)nc2=O)cc1 (centres unmarked) [Compound 167] | > 1 µM |  |  |  |  |  | > 1 µM | 8 to 32 µg/mL | 8 to 32 µg/mL | < 8 µg/mL | > 32 µg/mL | > 32 µg/mL
